Results published in patent US6034246A, “2-arylbenzazole compounds” (Cancer Research Campaign Technology Limited, priority 1995, dated 2000).
Read-outs that look alike come from different tables or passages of the source.

Legend:
H69/P = assay: in vitro inhibition of growth of human lung cancer cell line H69/P (Table 1); format: cell-based
Description: (§1) Tables 1 to 4 at the end of the present description show in vitro test results obtained in various sets of experiments for the cytotoxic activity of several of the benzazole compounds concerned, including also for reference results for the compound CJM 126 and comparative results for compound DF129, when tested against a range of tumor cell lines which includes ovarian, lung and certain colon and renal cancer cells from the National Cancer Institute (USA) collection. As usual the results are expressed in terms of IS50 values (concentration or dosage required to reduce cell growth or proliferation by 50%) calculated from dose-effect curves plotted for cultures of the cells in question.
(§2) In carrying out the in vitro studies, the cytotoxicity assays may be carried out by a method corresponding substantially to the following example:
(§3) Cells were maintained in a continuous logarithmic culture in Dublecco's medium supplemented with 10% fetal calf serum and penicillin (100 IU/ml) and streptomycin ([…]). The cells were mildly trypsinized for passage and for use in assays. On day zero, 100 μl of trypsinized tumor cells (1×10^4 /ml) were plated in the wells of 96-well flat-bottom microtiter plates. The plates were incubated for 2 days at 37° C. and 5% CO2 in air to allow the cells to adhere and resume exponential growth prior to the addition of drugs.
(§4) On day two 50 μl of the highest drug concentration was added to the wells of column 12 and from there serially diluted 3-fold to column 1 by serial transfer of 50 μl using an 8-channel micropipette. The final volume of column 1 was adjusted to 100 μl. No additions were made to the wells of rows A and B, which served as controls. The plates were further incubated for 5 days at 37° C. and 5% CO2 in air. Each compound was tested in duplicate.
(§5) On day 7 the test was terminated by the addition of 100 μl saline containing 0.002% w/v propidium iodide (Sigma), 0.3% drawing ink (Staedtler "Marsmatic 745"--Trade Mark) and 0.5% Triton X-100. The plates were kept at 4° C. overnight before reading on an inverted microscope equipped with an automated scanning stage. Fluorescence intensity was measured in arbitrary units by a photomultiplier. An HP-87 computer controlled the movement of the stage and also collected and processed the data from the multiplier.
(§6) For each compound tested a dose-response curve was obtained and the IC50 value (the drug concentration at 50% inhibition of cell growth) was calculated.

LX4 = assay: in vitro inhibition of growth of human lung cancer cell line LX4 (Table 1); format: cell-based
Description: as §1, §2, §3, §4, §5, §6

L23/P = assay: in vitro inhibition of growth of human lung cancer cell line L23/P (Table 1); format: cell-based
Description: as §1, §2, §3, §4, §5, §6

L23/R = assay: in vitro inhibition of growth of human lung cancer cell line L23/R (Table 1); format: cell-based
Description: as §1, §2, §3, §4, §5, §6

MOR/P = assay: in vitro inhibition of growth of human lung cancer cell line MOR/P (Table 1); format: cell-based; conditions: MOR/P (parental line)
Description: as §1, §2, §3, §4, §5, §6

MOR/R = assay: in vitro inhibition of growth of human lung cancer cell line MOR/R (Table 1); format: cell-based; conditions: MOR/R (multidrug resistant line)
Description: as §1, §2, §3, §4, §5, §6

MOR/CPR = assay: in vitro inhibition of growth of human lung cancer cell line MOR/CPR (Table 1); format: cell-based; conditions: Homo sapiens; MOR/CPR (cisplatin resistant line)
Description: as §1, §2, §3, §4, §5, §6

L88 = assay: in vitro inhibition of growth of human lung cancer cell line L88 (Table 1); format: cell-based
Description: as §1, §2, §3
as §4, with “The plates were further incubated for 5 days at 37° C. and 5% CO2 in air. Each compound was tested in duplicate.” left out
as §5, with “An HP-87 computer controlled the movement of the stage and also collected and processed the data from the multiplier.” left out

A2780 = assay: in vitro activity against human ovarian cell line A2780 (Table 2); format: cell-based; conditions: A2780 (parental line)
Description: (§7) As usual the results are expressed in terms of IS50 values (concentration or dosage required to reduce cell growth or proliferation by 50%) calculated from dose-effect curves plotted for cultures of the cells in question.
as §2, §3, §4
(§8) The plates were kept at 4° C. overnight before reading on an inverted microscope equipped with an automated scanning stage. Fluorescence intensity was measured in arbitrary units by a photomultiplier. An HP-87 computer controlled the movement of the stage and also collected and processed the data from the multiplier.

A2780-cisR = assay: in vitro activity against human ovarian cell line A2780-cisR (Table 2); format: cell-based; conditions: A2780-cisR (platinum-resistant)
Description: as §7, §2, §3, §4, §8

CH1 = assay: in vitro activity against human ovarian cell line CH1 (Table 2); format: cell-based
Description: as §7, §2, §3, §4, §8

CH1-cisR = assay: in vitro activity against human ovarian cell line CH1-cisR (Table 2); format: cell-based
Description: as §7, §2, §3, §4, §8

MCF-7wt = assay: in vitro inhibitory activity against human breast tumour cell line MCF-7wt (Table 4); format: cell-based; conditions: initial seeding density 2.5 × 10^2 cells/well
Description: as §1, §2, §3, §4, §5, §6
(§9) *Initial seeding density 2.5 × 10^2 cells/well

MDA 468 = assay: in vitro inhibitory activity against human breast tumour cell line MDA 468 (Table 4); format: cell-based; conditions: initial seeding density 2.5 × 10^2 cells/well
Description: as §1, §2, §3, §4, §5, §6, §9

MCF-7B = assay: in vitro inhibitory activity against human breast tumour cell line MCF-7B (Table 4); format: cell-based; conditions: initial seeding density 2.5 × 10^2 cells/well
Description: as §1, §2, §3
as §4, with “The plates were further incubated for 5 days at 37° C. and 5% CO2 in air. Each compound was tested in duplicate.” left out
as §5, with “An HP-87 computer controlled the movement of the stage and also collected and processed the data from the multiplier.” left out

[1] = test system: human breast cancer cell lines; assay: in vitro inhibition of human breast cancer cell lines; format: cell-based; conditions: words, Table 4
Description: as §1, §2, §3, §4, §5, §6

[2] = test system: ovarian cancer cell lines; assay: in vitro inhibition of ovarian cancer cell lines; format: cell-based, human; conditions: words, Table 2
Description: as §1
In carrying out the in vitro studies, the cytotoxicity assays may be carried out by a method corresponding substantially to the following example: […]
as §5, with “An HP-87 computer controlled the movement of the stage and also collected and processed the data from the multiplier.” left out

ER-tumors MT-1 and MT-3 = conditions: words, background statement; cited from earlier work
aqueous solubility = format: physicochemical; conditions: water

SMILES: O=C(CCl)Nc1ccc(-c2nc3ccccc3s2)cc1 [DF180, 2-(4'-Chloroacetamidophenyl)benzothiazole]
- IC50 (H69/P): 3 µM
- IC50 (LX4): 3 µM
- IC50 (L23/P): 1.5 µM
- IC50 (L23/R): 1.5 µM
- IC50 (MOR/P): 6 µM
- IC50 (MOR/R): 6 µM
- IC50 (MOR/CPR): 10 µM
- IC50 (L88): 6 µM
- IC50 (A2780; Homo sapiens): 1.25 µM
- IC50 (A2780-cisR; Homo sapiens, A2780cisR): 1.6 µM
- IC50 (CH1; Homo sapiens): 1.6 µM
- IC50 (CH1-cisR; Homo sapiens, CH1cisR): 2.6 µM
- IC50 (MCF-7wt): 0.004 µM
- IC50 (MDA 468): 0.04 µM
- IC50 (MCF-7B): 0.5 µM
- inhibitory activity in respect of breast cancer cell lines [1]: useful degree of inhibitory activity
- activity against two cisplatin resistant cell lines compared with the parental line [2]: substantially equiactive
- activity in respect of the ovarian cancer cell lines [2]: most active by far

SMILES: N.N.[Cl][Pt][Cl] [Cisplatin]
- IC50 (A2780): 0.33 µM
- IC50 (A2780-cisR): 5.2 µM
- IC50 (CH1): 0.1 µM
- IC50 (CH1-cisR): 0.7 µM
- responsiveness of MT-1 and MT-3 tumors to drug (ER-tumors MT-1 and MT-3): only modestly sensitive

SMILES: O=S(=O)([O-])Nc1ccc(-c2nc3ccccc3s2)cc1.[Na+]
- solubility (aqueous solubility): ~10 mg/mL

SMILES: CCCCCCCCCCCCCCCCOP(=O)([O-])OCC[N+](C)(C)C [hexadecylphosphocoline]
- responsiveness of MT-1 and MT-3 tumors to drug (ER-tumors MT-1 and MT-3): exquisitively sensitive
